From patent US20080274892A1, “Novel Haloalkylsulfonanilide Derivative, Herbicide, and Method of Use Thereof” (priority 2005, published 2008)

Experiments:
bulrush [1] = experiment: Test Example 1: herbicidal efficacy on rice paddy weeds pre-emergence; type: in vivo, Scirpus juncoides; conditions: 21 days
false pimpernel [2] = experiment: as above; type: in vivo, Lindernia pyxidaria; conditions: 21 days
barnyard glass = experiment: Test Example 2: herbicidal efficacy on rice paddy weeds post-emergence; type: in vivo, Echinochloa crus-galli; conditions: post-emergence, one leaf stage, 21 days after treatment
Outline: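 Efficacy on paddy weeds was scored on a 0 to 4 growth-inhibition scale: 4 for 90%-100%, 3 for 70%-89%, 2 for 40%-69%, 1 for 1%-39% and 0 for 0%. Barnyard glass was grown in clay loam in 75 cm^2 pots under 5 cm of water in a hot house. It was compared with untreated pots 21 days after treatment.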

bulrush [3] = experiment: as above; type: in vivo, Scirpus juncoides; conditions: post-emergence, one leaf stage, 21 days after treatment
false pimpernel [4] = experiment: as above; type: in vivo, Lindernia pyxidaria; conditions: post-emergence, one leaf stage, 21 days after treatment
[5] = tested on: paddy rice plant (cultivar: Nihonbare); experiment: Test Example 3: phytotoxicity test for transplanted paddy rice plant; type: in vivo; conditions: transplanted rice, 21 days after treatment
Outline: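 Clay loam soil was placed in a 75 cm^2 plastic pot and flooded to a water depth of 5 cm. Two Nihonbare paddy rice plants at the two-leaf stage were transplanted 1 cm deep and grown in a hot house. After treatment, pots stayed in the hot house for 21 days, and phytotoxicity was then graded against an untreated control.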

bulrush [6] = experiment: Test Example 4: low dosage test for rice paddy weeds; type: in vivo, Scirpus juncoides; conditions: 300 g/ha as an active ingredient; plants treated at the one leaf stage; 21 days after treatment; vs untreated control
Outline: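 Compound applied as a formulation at 300 g/ha to one-leaf bulrush grown in flooded clay loam (5 cm water) in a hot house. After 21 days, growth inhibition versus untreated plants rated on a 0–4 scale, with 4 meaning 90–100%.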

[7] = tested on: transplanted paddy rice plant and Bulrush; experiment: Test Example 5: selectivity between transplanted paddy rice plant and weeds; type: in vivo; conditions: (highest dosage with no phytotoxicity to paddy rice)/(lowest dosage with effective level 4 on Bulrush); rice 3000-100 g/ha, Bulrush 300-10 g/ha; 21 days
Outline: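 Scoring ran 21 days after treatment in a hothouse on a 0–4 scale (4 = 90–100%, 3 = 70–89%, 2 = 40–69%, 1 = 1–39%, 0 = none) relative to untreated plants. Post-emergence bulrush received 10, 30, 100 and 300 g/ha active ingredient. Transplanted rice received 100, 300, 1000 and 3000 g/ha to assess crop injury.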

For `CCC1COC(=O)N1Cc1ccccc1NS(=O)(=O)C(F)(F)F` (stereo not shown) [Compound No. 1-5, 4-ethyl-3-[2-(trifluoromethanesulfonylamino)benzyl]-2-oxazolidinone], the “Bulrush pre (herbicidal efficacy grade)” value (bulrush [1]; dosage 1000 g/ha) was 4 (90%-100% of herbicidal efficacy or phytotoxicity), the “False pimpernel pre (herbicidal efficacy grade)” value (from here on “False pimpernel pre”) (false pimpernel [2]; dosage 1000 g/ha) was 4 (90%-100% of herbicidal efficacy or phytotoxicity) and the “Burnyard grass post (herbicidal efficacy grade)” value (shortened to “Burnyard grass post”) (barnyard glass; dosage 1000 g/ha) was 4 (90%-100% of herbicidal efficacy or phytotoxicity). The “Bulrush post (herbicidal efficacy grade)” value (bulrush [3]; dosage 1000 g/ha) was 4 (90%-100% of herbicidal efficacy or phytotoxicity), the “False pimpernel post (herbicidal efficacy grade)” value (“False pimpernel post” for short) (false pimpernel [4]; dosage 1000 g/ha) was 4 (90%-100% of herbicidal efficacy or phytotoxicity) and the “Phytotoxicity to paddy rice” value ([5]; dosage 1000 g/ha, treated 5 days after transplantation) was 2 (40%-69% of herbicidal efficacy or phytotoxicity). For the same compound, the “Herbicide effect to Bulrush” value (bulrush [6]) was 4 (90%-100% of herbicidal efficacy or phytotoxicity), the “Selective Index” value [7] was “≧10” and the melting point was 81.4 to 83.6 °C.
`CC1(C)OC(=O)N(Cc2ccccc2NS(=O)(=O)C(F)(F)F)C1O` (stereo not shown) [Compound No. 1-194, 4-hydroxy-5,5-dimethyl-3-[2-(trifluoromethanesulfonylamino)benzyl]oxazolidin-2-one] showed a melting point of 88 to 92 °C.
For `COC1N(Cc2ccccc2N(C(=O)OCC(C)C)S(=O)(=O)C(F)(F)F)C(=O)OC1(C)C` (stereo not shown) [Compound No. 1-197, 3-{2-[N-(isobutoxycarbonyl)-N-(trifluoromethanesulfonyl)-amino]benzyl}-4-methoxy-5,5-dimethyloxazolidin-2-one], the “Bulrush pre (herbicidal efficacy grade)” value (bulrush [1]; dosage 300 g/ha) was 4 (90%-100% of herbicidal efficacy or phytotoxicity), the “False pimpernel pre” value (false pimpernel [2]; dosage 300 g/ha) was 3 (70%-89% of herbicidal efficacy or phytotoxicity) and the “Burnyard grass post” value (barnyard glass; dosage 300 g/ha) was 4 (90%-100% of herbicidal efficacy or phytotoxicity). The “Bulrush post (herbicidal efficacy grade)” value (bulrush [3]; dosage 300 g/ha) was 4 (90%-100% of herbicidal efficacy or phytotoxicity), the “False pimpernel post” value (false pimpernel [4]; dosage 300 g/ha) was 1 (1%-39% of herbicidal efficacy or phytotoxicity) and the “Phytotoxicity to paddy rice” value ([5]; dosage 300 g/ha) was 2 (40%-69% of herbicidal efficacy or phytotoxicity). The “Herbicide effect to Bulrush” value (bulrush [6]) was 4 (90%-100% of herbicidal efficacy or phytotoxicity) and the “Selective Index” value [7] was 10.
For `Cc1cn(Cc2ccccc2NS(=O)(=O)C(F)(F)F)c(=O)o1` [Compound No. 1-207, 5-methyl-3-[2-(trifluoromethanesulfonylamino)benzyl]-4-oxazolin-2-one], the “Bulrush pre (herbicidal efficacy grade)” value (bulrush [1]; dosage 300 g/ha) was 4 (90%-100% of herbicidal efficacy or phytotoxicity), the “False pimpernel pre” value (false pimpernel [2]; dosage 300 g/ha) was 4 (90%-100% of herbicidal efficacy or phytotoxicity) and the “Burnyard grass post” value (barnyard glass; dosage 300 g/ha) was 0 (0% of herbicidal efficacy or phytotoxicity). The “Bulrush post (herbicidal efficacy grade)” value (bulrush [3]; dosage 300 g/ha) was 4 (90%-100% of herbicidal efficacy or phytotoxicity), the “False pimpernel post” value (false pimpernel [4]; dosage 300 g/ha) was 1 (1%-39% of herbicidal efficacy or phytotoxicity) and the “Phytotoxicity to paddy rice” value ([5]; dosage 300 g/ha) was 1 (1%-39% of herbicidal efficacy or phytotoxicity). For the same compound, the melting point was 120.2 to 121.2 °C.
With `Cc1cn(Cc2ccccc2N(C(=O)OCC(C)C)S(=O)(=O)C(F)(F)F)c(=O)o1` [Compound No. 1-208, 3-{2-[N-(isobutoxycarbonyl)-N-(trifluoromethanesulfonyl)amino]benzyl}-5-methyl-4-oxazolin-2-one] the “Bulrush pre (herbicidal efficacy grade)” value (bulrush [1]; dosage 300 g/ha) was 4 (90%-100% of herbicidal efficacy or phytotoxicity), the “False pimpernel pre” value (false pimpernel [2]; dosage 300 g/ha) was 4 (90%-100% of herbicidal efficacy or phytotoxicity) and the “Bulrush post (herbicidal efficacy grade)” value (bulrush [3]; dosage 300 g/ha) was 4 (90%-100% of herbicidal efficacy or phytotoxicity). For the same compound, the “False pimpernel post” value (false pimpernel [4]; dosage 300 g/ha) was 1 (1%-39% of herbicidal efficacy or phytotoxicity), the “Phytotoxicity to paddy rice” value ([5]; dosage 300 g/ha) was 0 (0% of herbicidal efficacy or phytotoxicity) and the melting point was 60.3 to 68.6 °C.
